Experimental data reported in patent publication US8853423B2, “Indane estrogen receptor modulators and uses thereof” (Seragon Pharmaceuticals, Inc., priority 2010, dated 2014).

Columns and labels:
Assay type in all cases: cell-based
ER-α [1] = target: T1, ER-α (Homo sapiens, UniProt P03372); assay: ER-α in Cell Western Assay (ER1D5); conditions: MCF-7 cells, ER1D5 antibody, 4 or 24 hr post compound addition, read-out: ER In-Cell Western Assay (ER1D5); for Emax: MCF7, Max Response; for DC50: IC50
T1 construct: endogenous in cells; host or cells: MCF-7
T1 sequence (P03372 1-595): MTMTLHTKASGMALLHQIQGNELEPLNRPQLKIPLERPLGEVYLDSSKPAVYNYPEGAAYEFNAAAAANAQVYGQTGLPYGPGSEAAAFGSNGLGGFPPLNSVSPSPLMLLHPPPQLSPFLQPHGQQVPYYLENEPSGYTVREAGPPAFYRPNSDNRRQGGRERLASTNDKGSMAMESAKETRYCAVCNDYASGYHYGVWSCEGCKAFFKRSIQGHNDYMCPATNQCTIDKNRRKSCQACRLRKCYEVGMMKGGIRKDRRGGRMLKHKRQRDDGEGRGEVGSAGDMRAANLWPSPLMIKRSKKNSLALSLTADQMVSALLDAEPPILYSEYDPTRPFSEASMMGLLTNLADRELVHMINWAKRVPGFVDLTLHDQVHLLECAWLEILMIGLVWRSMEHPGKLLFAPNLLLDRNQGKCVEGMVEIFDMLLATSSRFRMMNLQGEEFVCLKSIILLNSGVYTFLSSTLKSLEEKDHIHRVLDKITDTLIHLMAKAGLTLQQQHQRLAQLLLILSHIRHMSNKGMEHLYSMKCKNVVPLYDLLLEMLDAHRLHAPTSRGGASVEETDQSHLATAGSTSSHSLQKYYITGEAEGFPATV
Procedure: (§1) MCF-7 cells were adjusted to a concentration of 200,000 cells per mL in RPMI containing 10% charcoal-stripped FBS and 20 mM HEPES. 16 microliters of the cell suspension (3200 cells) was added to each well of a poly-D-lysine 384 well plate, and the cells were incubated overnight to allow the cells to adhere. The following day an eleven point, serial semilog dilution of each compound was added to the cells in 16 μL at a final concentration ranging from 0.3-0.000003 μM. At 4 or 24 hr post compound addition, the cells were fixed (10% formalin in PBS) for 20 minutes. Cells were permeabalized in PBS 0.1% Triton and blocked with LICOR blocking buffer (50 μl/well, 90′). The wells were then incubated overnight at 4° C. with ER1D5 (Santa Cruz Biotechnology) diluted 1:100 in LICOR blocking buffer/0.1% Tween-20. Wells which were treated with blocking buffer with Tween but no antibody were used as a background control. Wells were washed with 0.1% Tween-20/PBS and then incubated in goat anti-mouse IRDye™ 800CW (LICOR Inc.; 1:1000) and DRAQ5 DNA dye (1:2000 for 2 mM stock) diluted in LICOR blocking buffer containing 0.1% Tween-20 and 0.01% SDS for 60 minutes. Cells were washed (50 μl/well, 5′ each) in 0.1% Tween-20/PBS. Plates were scanned on a LICOR Odyssey infrared imaging system. Integrated intensities in the 800 nm channel and 700 nm channel were measured to determine levels of ER and DNA respectively. Percent ER levels were determined as follows: (Integrated intensity 800 nm sample/integrated intensity 700 nm sample)/(Integrated intensity 800 nm untreated cells/integrated intensity 700 nm untreated cells)×100=% ER levels.

MCF-7 cells = assay: Breast Cancer Cell Viability Assay (MCF7 Viability Assay, CellTiter-Glo); conditions: 5 days' compound exposure; for IC50: Homo sapiens, MCF7, 120 h
Procedure: MCF-7 cells were adjusted to a concentration of 20,000 cells per mL in RPMI containing 10% FBS and 20 mM HEPES. 16 microliters of the cell suspension (320 cells) was added to each well of a 384 well plate, and the cells were incubated overnight to allow the cells to adhere. The following day an eleven point, serial semilog dilution of each compound was added to the cells in 16 μL at a final concentration ranging from 0.3-0.000003 μM. After 5 days' compound exposure, 16 μL of CellTiter-GLo (Promega, Madison Wis.) was added to the cells the relative luminescence units (RLUs) of each well was determined. CellTiter-Glo added to 32 μL of medium without cells was used to obtain a background value. The Percent viability of each sample was determined as follows: (RLU sample-RLU background/RLU untreated cells-RLU background)×100=% viability.

ER-α [2] = target: T1, ER-α; assay: ER-α in Cell Western Assay (SP1); conditions: MCF-7 cells, SP1 rabbit monoclonal Ab, 4 or 24 hr post compound addition, read-out: ER In-Cell Western Assay (SP1); for Emax: MCF7, Max Response; for DC50: IC50
Procedure: as §1, with “with SP1 rabbit monoclonal Ab (Thermo Scientific)” for “with ER1D5 (Santa Cruz Biotechnology)”, “diluted 1:1000” for “diluted 1:100”, “goat anti-rabbit” for “goat anti-mouse”

SMILES	Emax (ER-α [1]) [%]	DC50 (ER-α [1]) [nM]	IC50 (MCF-7 cells) [nM]	Emax (ER-α [2]) [%]	DC50 (ER-α [2]) [nM]	MCF7 Viability Assay Max Response (MCF-7 cells)
C[C@@H]1CCN([C@@H](C)COc2ccc(C3c4ccc(O)cc4CC3c3ccc(O)cc3)cc2)C1 (stereo partly drawn) [Example 2, 2-(4-Hydroxyphenyl)-1-(4-((S)-2-((R)-3-methylpyrrolidin-1-yl)propoxy)phenyl)-2,3-dihydro-1H-inden-5-ol]	≥ 65	≤ 1	≤ 1	≥ 85	≤ 1	++ (++ = a single % value ≧50%)
C[C@@H]1CCN([C@@H](C)COc2ccc(C3c4ccc(O)c(F)c4CC3c3ccc(O)cc3)cc2)C1 (stereo partly drawn) [Example 5, 4-Fluoro-2-(4-hydroxyphenyl)-1-(4-((S)-2-((R)-3-methylpyrrolidin-1-yl)propoxy)phenyl)-2,3-dihydro-1H-inden-5-ol]	–	–	≤ 1	≥ 85	≤ 1	++ (++ = a single % value ≧50%)
C[C@@H]1CCN([C@@H](C)COc2ccc(C3c4ccc(O)cc4CC3c3ccc(F)cc3)cc2)C1 (stereo partly drawn) [Example 6, 2-(4-Fluorophenyl)-1-(4-((S)-2-((R)-3-methylpyrrolidin-1-yl)propoxy)phenyl)-2,3-dihydro-1H-inden-5-ol]	–	–	> 1	≥ 85	≤ 1	++ (++ = a single % value ≧50%)
Oc1ccc2c(c1)CC(c1ccccc1)C2c1ccc(OCCN2CCCC2)cc1 (stereo not drawn) [Example 7, 2-Phenyl-1-(4-(2-(pyrrolidin-1-yl)ethoxy)phenyl)-2,3-dihydro-1H-inden-5-ol]	–	–	> 1	60 to 85	≤ 1	++ (++ = a single % value ≧50%)

The next lines start with results.

Emax (ER-α [1]) [%]	DC50 (ER-α [1]) [nM]	IC50 (MCF-7 cells) [nM]	Emax (ER-α [2]) [%]	DC50 (ER-α [2]) [nM]	SMILES	MCF7 Viability Assay Max Response (MCF-7 cells)
40 to 65	≤ 1	≤ 1	60 to 85	≤ 1	Oc1ccc(C2Cc3cc(O)ccc3C2c2ccc(OCCN3CCCC3)cc2)cc1 (stereo not drawn) [Example 1, 2-(4-Hydroxyphenyl)-1-(4-(2-(pyrrolidin-1-yl)ethoxy)phenyl)-2,3-dihydro-1H-inden-5-ol]	++ (++ = a single % value ≧50%)
≥ 65	≤ 1	≤ 1	≥ 85	≤ 1	C[C@@H]1CCN([C@@H](C)COc2ccc(C3c4ccc(O)cc4CC3c3cccc(O)c3)cc2)C1 (stereo partly drawn) [Example 3, 2-(3-Hydroxyphenyl)-1-(4-((S)-2-((R)-3-methylpyrrolidin-1-yl)propoxy)phenyl)-2,3-dihydro-1H-inden-5-ol]	++ (++ = a single % value ≧50%)
≥ 65	≤ 1	≤ 1	≥ 85	≤ 1	C[C@@H]1CCN([C@@H](C)COc2ccc(C3c4ccc(O)cc4CC3c3ccccc3)cc2)C1 (stereo partly drawn) [Example 4, 1-(4-((S)-2-((R)-3-Methylpyrrolidin-1-yl)propoxy)phenyl)-2-phenyl-2,3-dihydro-1H-inden-5-ol]	++ (++ = a single % value ≧50%)
